Laboratory results taken from patent US20230141603A1, “BENZODIAZEPINE DERIVATIVES AS GABA A GAMMA1 PAM” (Hoffmann-La Roche Inc., priority 2021, published 2023).

Target: T1, h-GABAA α2β2γ1 (Homo sapiens, UniProt P47869+Q8N1C3)
T1 sequence (P47869 29-451): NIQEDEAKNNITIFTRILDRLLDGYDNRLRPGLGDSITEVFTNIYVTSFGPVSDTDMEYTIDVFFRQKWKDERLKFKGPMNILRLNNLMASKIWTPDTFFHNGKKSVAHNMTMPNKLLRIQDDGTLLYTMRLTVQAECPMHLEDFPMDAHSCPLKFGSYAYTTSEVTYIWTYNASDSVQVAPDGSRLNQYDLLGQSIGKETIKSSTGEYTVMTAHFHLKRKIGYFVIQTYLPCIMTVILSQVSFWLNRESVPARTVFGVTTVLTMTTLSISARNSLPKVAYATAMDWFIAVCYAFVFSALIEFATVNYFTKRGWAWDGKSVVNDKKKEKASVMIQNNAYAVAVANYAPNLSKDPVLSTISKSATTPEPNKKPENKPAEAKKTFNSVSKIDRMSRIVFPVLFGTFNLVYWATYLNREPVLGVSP
T1 sequence (P47870 25-512 partner limits assumed): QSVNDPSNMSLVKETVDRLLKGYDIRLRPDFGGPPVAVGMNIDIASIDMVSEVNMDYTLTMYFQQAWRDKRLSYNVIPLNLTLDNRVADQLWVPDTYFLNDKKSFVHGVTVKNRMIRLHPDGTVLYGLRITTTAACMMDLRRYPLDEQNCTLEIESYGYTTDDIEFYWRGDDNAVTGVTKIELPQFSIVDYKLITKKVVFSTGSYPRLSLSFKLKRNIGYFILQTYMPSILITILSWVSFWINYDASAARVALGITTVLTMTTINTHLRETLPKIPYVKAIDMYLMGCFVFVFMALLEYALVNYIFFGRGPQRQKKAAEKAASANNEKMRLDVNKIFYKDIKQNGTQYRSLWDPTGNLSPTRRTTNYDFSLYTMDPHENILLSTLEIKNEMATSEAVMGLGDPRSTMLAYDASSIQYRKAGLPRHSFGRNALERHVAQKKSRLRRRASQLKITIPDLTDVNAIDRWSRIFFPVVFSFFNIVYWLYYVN
T1 sequence (Q8N1C3 36-465): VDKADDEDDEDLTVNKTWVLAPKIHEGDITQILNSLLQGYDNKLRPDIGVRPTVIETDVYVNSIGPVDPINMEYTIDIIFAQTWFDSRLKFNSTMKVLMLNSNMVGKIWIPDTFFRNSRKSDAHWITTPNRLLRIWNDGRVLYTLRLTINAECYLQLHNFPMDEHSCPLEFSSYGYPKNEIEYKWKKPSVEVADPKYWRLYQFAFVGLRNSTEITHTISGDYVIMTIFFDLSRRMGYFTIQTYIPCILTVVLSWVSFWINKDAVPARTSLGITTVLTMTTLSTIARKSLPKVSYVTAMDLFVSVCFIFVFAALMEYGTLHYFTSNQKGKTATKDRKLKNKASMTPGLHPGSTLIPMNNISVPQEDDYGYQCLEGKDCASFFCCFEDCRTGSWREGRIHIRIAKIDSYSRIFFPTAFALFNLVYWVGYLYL
Assay: Two-electrode voltage clamp electrophysiology in Xenopus oocytes, modulation of GABA EC20 current
Assay type: cell-based
Parameters: host or cells: Xenopus laevis oocytes, RNA micro-injection
Settings: Table 2; for Efficacy (GABA)%: % modulation of GABA EC20 = 100*(Fold increase−1), compound at approx. 30-fold Ki; for Fold increase h-GABA-A α2β2γ1 oocyte @ 30-fold Ki: compound at approx. 30-fold its Ki α2β2γ1, GABA EC20, Xenopus oocytes
Procedure: Xenopus laevis oocytes at maturation stages V-VJ were used for the expression of cloned mRNA encoding GABAA receptor subunits. Oocytes ready for RNA micro-injection were bought from Ecocyte, Castrop-Rauxel, Germany and stored in modified Barth's medium (composition in mM: NaCl 88, KCl 1, NaHCO3 2.4, HEPES 10, MgSO4 0.82, CaNO3 0.33, CaCl2 0.33, pH=7.5) at 20° C. until the experiment.
Oocytes were plated in 96-well plates for microinjection using the Roboinject automated instrument (MultiChannelSystems, Reutlingen, Germany). Approximately 50 nL of an aqueous solution containing the RNA transcripts for the subunits of the desired GABAA receptor subtype was injected into each oocyte. […] Oocytes were kept in modified Barth's medium (composition in mM: NaCl 88, KCl 1, NaHCO3 […], HEPES 10, MgSO4 0.82, CaNO3 0.33, CaCl2 0.33, pH=7.5) at 20° C. until the experiment.
Electrophysiological experiments were performed using the Roboocyte instrument (MultiChannelSystems, Reutlingen, Germany) on days 3 to 5 after the micro-injection of mRNA. During the experiment the oocytes were constantly superfused by a solution containing (in mM) NaCl 90, KCl 1, HEPES 5, MgCl2 1, CaCl2 1 (pH 7.4). Oocytes were impaled by two glass microelectrodes (resistance: 0.5-0.8 MΩ) which were filled with a solution containing KCl 1M+K-acetate 1.5 M and voltage-clamped to −80 mV. The recordings were performed at room temperature using the Roboocyte two-electrode voltage clamp system (Multichannelsystem). After an initial equilibration period of 1.5 min GABA was added for 1.5 min at a concentration evoking approximately 20% of a maximal current response (EC20). After another rest interval of 2.5 min GABA was again added evoking a response of similar amplitude and shape. […] Current traces were recorded at a digitization rate of 10 Hz during and shortly before and after the GABA application.
Each compound and concentration was tested on at least 3 oocytes. Different oocytes were used for different compound concentrations.
For the analysis, the digitized current traces of the first and second GABA response were superimposed and, if necessary, rescaled to equal maximal amplitudes. The ratio between the two responses during the time interval of test compound application was calculated point by point. The extremum of the resulting “ratio trace” was taken as the efficacy (“Fold increase”) of the compound expressed as “% modulation of GABA EC20” (100*(Fold increase−1)).

SMILES | Efficacy (GABA)% [%] | Fold increase h-GABA-A α2β2γ1 oocyte @ 30-fold Ki
Fc1cccc(F)c1C1=NCc2nnc(-c3cccnn3)n2-c2ccc(I)c(Cl)c21 [Example 39, 7-chloro-6-(2,6-difluorophenyl)-8-iodo-1-pyridazin-3-yl-4H-[1,2,4]triazolo[4,3-a][1,4]benzodiazepine] | 133 | 2.33
Fc1cccnc1C1=NCc2nnc(-c3cccnn3)n2-c2ccc(Cl)c(Cl)c21 [Example 54, 7,8-dichloro-6-(3-fluoro-2-pyridyl)-1-pyridazin-3-yl-4H-[1,2,4]triazolo[4,3-a][1,4]benzodiazepine] | 602 | 7.02
O=c1[nH]nc2n1-c1ccc(Br)c(Cl)c1C(c1c(F)cccc1F)=NC2 [Example 13, 8-bromo-7-chloro-6-(2,6-difluorophenyl)-2,4-dihydro-[1,2,4]triazolo[4,3-a][1,4]benzodiazepin-1-one] | 52 | 1.52
Cc1nnc2n1-c1ccc(Cl)c(Cl)c1C(c1ccccc1F)=NC2 [Example 4, 7,8-dichloro-6-(2-fluorophenyl)-1-methyl-4H-[1,2,4]triazolo[4,3-a][1,4]benzodiazepine] | 73 | 1.73
Fc1cccc(F)c1C1=NCc2nnc(-c3cccnn3)n2-c2ccc(Br)c(Cl)c21 [Example 104, 8-bromo-7-chloro-6-(2,6-difluorophenyl)-1-pyridazin-3-yl-4H-[1,2,4]triazolo[4,3-a][1,4]benzodiazepine] | 94 | 1.94
Cc1nnc2n1-c1ccc(Br)c(Cl)c1C(c1c(F)cccc1Cl)=NC2 [Example 50, 8-bromo-7-chloro-6-(2-chloro-6-fluoro-phenyl)-1-methyl-4H-[1,2,4]triazolo[4,3-a][1,4]benzodiazepine] | 54 | 1.54
Cc1nnc2n1-c1ccc(Br)c(Cl)c1C(c1c(F)cccc1F)=NC2 [Example 1, 8-bromo-7-chloro-6-(2,6-difluorophenyl)-1-methyl-4H-[1,2,4]triazolo[4,3-a][1,4]benzodiazepine] | 77 | 1.77
Fc1ccccc1C1=NCc2nnc(C3CC3)n2-c2ccc(Br)c(Cl)c21 [Example 2, 8-bromo-7-chloro-1-cyclopropyl-6-(2-fluorophenyl)-4H-[1,2,4]triazolo[4,3-a][1,4]benzodiazepine] | 84 | 1.84
O=c1[nH]nc2n1-c1ccc(Br)c(Cl)c1C(c1ccccc1F)=NC2 [Example 26, 8-bromo-7-chloro-6-(2-fluorophenyl)-2,4-dihydro-[1,2,4]triazolo[4,3-a][1,4]benzodiazepin-1-one] | 45 | 1.45
Clc1cccnc1C1=NCc2nnc(-c3ccncn3)n2-c2ccc(Br)c(Cl)c21 [Example 44, 8-bromo-7-chloro-6-(3-chloro-2-pyridyl)-1-pyrimidin-4-yl-4H-[1,2,4]triazolo[4,3-a][1,4]benzodiazepine] | 62 | 1.62
Cc1ccc2c(c1Cl)C(c1c(F)cccc1F)=NCc1nnc(-c3cccnn3)n1-2 [Example 48, 7-chloro-6-(2,6-difluorophenyl)-8-methyl-1-pyridazin-3-yl-4H-[1,2,4]triazolo[4,3-a][1,4]benzodiazepine] | 101 | 2.01
Cc1ccc2c(c1Cl)C(c1c(F)cccc1F)=NCc1nncn1-2 [Example 17, 7-chloro-6-(2,6-difluorophenyl)-8-methyl-4H-[1,2,4]triazolo[4,3-a][1,4]benzodiazepine] | 70 | 1.70
Fc1cccnc1C1=NCc2nnc(C3CC3)n2-c2ccc(Cl)c(Cl)c21 [Example 65, 7,8-dichloro-1-cyclopropyl-6-(3-fluoro-2-pyridyl)-4H-[1,2,4]triazolo[4,3-a][1,4]benzodiazepine] | 114 | 2.14
Fc1cccc(F)c1C1=NCc2nncn2-c2ccc(C(F)(F)F)c(Cl)c21 [Example 37, 7-chloro-6-(2,6-difluorophenyl)-8-(trifluoromethyl)-4H-[1,2,4]triazolo[4,3-a][1,4]benzodiazepine] | 67 | 1.67
Fc1ccccc1C1=NCc2nnc(-c3ccncn3)n2-c2ccc(Cl)c(Cl)c21 [Example 18, 7,8-dichloro-6-(2-fluorophenyl)-1-pyrimidin-4-yl-4H-[1,2,4]triazolo[4,3-a][1,4]benzodiazepine] | 70 | 1.70
Cc1nnc2n1-c1ccc(C(F)(F)F)c(Cl)c1C(c1ncccc1F)=NC2 [Example 78, 7-chloro-6-(3-fluoro-2-pyridyl)-1-methyl-8-(trifluoromethyl)-4H-[1,2,4]triazolo[4,3-a][1,4]benzodiazepine] | 103 | 2.03
COc1nnc2n1-c1ccc(Cl)c(Cl)c1C(c1c(F)cccc1F)=NC2 [Example 90, 7,8-dichloro-6-(2,6-difluorophenyl)-1-methoxy-4H-[1,2,4]triazolo[4,3-a][1,4]benzodiazepine] | 65 | 1.65
Cc1nnc2n1-c1ccc(C(F)(F)F)c(Cl)c1C(c1c(F)cccc1F)=NC2 [Example 40, 7-chloro-6-(2,6-difluorophenyl)-1-methyl-8-(trifluoromethyl)-4H-[1,2,4]triazolo[4,3-a][1,4]benzodiazepine] | 75 | 1.75
Cc1nnc2n1-c1ccc(Cl)c(Cl)c1C(c1c(F)cccc1F)=NC2 [Example 5, 7,8-dichloro-6-(2,6-difluorophenyl)-1-methyl-4H-[1,2,4]triazolo[4,3-a][1,4]benzodiazepine] | 57 | 1.57
Cn1cc(-c2nnc3n2-c2ccc(Cl)c(Cl)c2C(c2ncccc2F)=NC3)cn1 [Example 58, 7,8-dichloro-6-(3-fluoro-2-pyridyl)-1-(1-methylpyrazol-4-yl)-4H-[1,2,4]triazolo[4,3-a][1,4]benzodiazepine] | 67 | 1.67
